The values that follow are results of earlier work, collected in patent US9248196B2, “Rebamipide complexes and cocrystals” (NUFORMIX LIMITED, priority 2011, dated 2016).

Like-named read-outs stand apart in the source and are kept apart here.

Turning to `O=C(NC(Cc1cc(=O)[nH]c2ccccc12)C(=O)O)c1ccc(Cl)cc1` (stereo not drawn) [Rebamipide, 2-(4-chlorobenzamido)-3-(2-oxo-1,2-dihydroquinolin-4-yl)propanoic acid], the solubility result runs as follows: (in ethanol) “very slightly soluble”; (in methanol) “very slightly soluble”; (in water) “practically insoluble”.
